Laboratory results published in US10590086B2, “Pharmaceutical compound” (IOmet Pharma Ltd., priority 2014, dated 2020).

Experiments:
TDO = TDO (Homo sapiens, UniProt P48775); test: A172 kynurenine cell-based assay; parameters: This assay utilised cancer cells which expressed either TDO or IDO; endogenous in cells; host or cells: A172 (human glioblastoma); conditions: A172 human glioblastoma cells, 48 hours, 500 μM L-tryptophan; read-out: A172 Kynurenine cell based assay pIC50 (converted)
Description: (§1) Exemplary compounds of the invention were prepared, and tested to determine their effect as TDO and/or IDO inhibitors. Two different assays were employed: 1. a cell-based assay for detecting the effect of test compounds on kynurenine production in two different cancer cell types. This assay utilised cancer cells which expressed either TDO or IDO and as such was used as a means of testing compound activity at these two enzymes in a cell-based context. 2. a TDO and IDO biochemical coupled assay which utilised recombinantly produced and purified TDO and IDO enzymes in combination with the enzyme formamidase. This coupled enzyme system allowed conversion of N-formylkynurenine produced by TDO or IDO activity to kynurenine which was then quantified by fluorescence following addition of Erhlich's Reagent The protocols for these are set out below.
(§2) Cell Based Assay for Detection of Kynurenine Produced by TDO and/or IDO
(§3) A172 (human glioblastoma) and SKOV3 (human ovarian adenocarcinoma) cells were seeded in a 96 well plate at 30,000 or 40,000 cells per well respectively in phenol red-free RPMI supplemented with 10% FCS, 2 mM L-glutamine and 500 μM L-tryptophan. IDO expression was induced in the SKOV3 cells by the addition of 500 ng/ml IFN-γ. Cells were incubated at 37° C. with or without the addition of test compound. After 48 hours, the cells were removed by centrifugation and Erhlich's reagent was added to the supernatant. The Erhlich's reagent was incubated for 5 minutes before the absorbance was read at 490 nm.

IDO = IDO (Homo sapiens, UniProt P14902); test: SKOV3 kynurenine cell-based assay (IDO induced by IFN-γ); parameters: IDO expression was induced in the SKOV3 cells by the addition of 500 ng/ml IFN-γ; endogenous in cells; host or cells: SKOV3 (human ovarian adenocarcinoma), induced with IFN-γ; conditions: SKOV3 human ovarian adenocarcinoma cells, 500 ng/ml IFN-γ, 48 hours, 500 μM L-tryptophan; read-out: SKOV3 Kynurenine cell based assay pIC50 (converted)
Description: as §1, §2, §3

Sequence of TDO (P48775 whole entry): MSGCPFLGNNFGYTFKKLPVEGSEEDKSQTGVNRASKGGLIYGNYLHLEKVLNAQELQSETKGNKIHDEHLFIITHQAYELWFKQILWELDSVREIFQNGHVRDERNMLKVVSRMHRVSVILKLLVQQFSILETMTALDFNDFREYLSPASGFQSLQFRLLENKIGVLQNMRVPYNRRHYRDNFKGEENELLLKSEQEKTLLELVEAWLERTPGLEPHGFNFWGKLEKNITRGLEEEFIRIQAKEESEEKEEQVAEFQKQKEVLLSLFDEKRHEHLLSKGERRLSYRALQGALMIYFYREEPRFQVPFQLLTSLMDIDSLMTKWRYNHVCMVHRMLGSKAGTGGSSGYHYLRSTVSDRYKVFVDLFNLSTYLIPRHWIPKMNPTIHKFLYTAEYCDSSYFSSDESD
Sequence of IDO (P14902 whole entry): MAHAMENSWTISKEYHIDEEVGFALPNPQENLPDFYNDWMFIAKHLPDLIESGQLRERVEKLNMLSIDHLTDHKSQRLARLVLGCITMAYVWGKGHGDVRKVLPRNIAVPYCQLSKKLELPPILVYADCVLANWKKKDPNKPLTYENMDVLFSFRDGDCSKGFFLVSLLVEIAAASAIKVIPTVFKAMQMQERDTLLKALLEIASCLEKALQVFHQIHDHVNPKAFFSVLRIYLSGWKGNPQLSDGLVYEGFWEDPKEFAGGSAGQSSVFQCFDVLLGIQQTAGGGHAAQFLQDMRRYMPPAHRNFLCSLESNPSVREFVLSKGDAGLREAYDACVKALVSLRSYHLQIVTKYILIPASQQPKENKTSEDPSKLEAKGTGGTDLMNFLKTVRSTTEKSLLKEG

| IC50 (TDO) | IC50 (IDO) | Compound |
| --- | --- | --- |
| < 3.16 µM | 3.24 to 31.6 µM | CC(=O)N1CCC(c2cccc3[nH]ncc23)CC1(C)C (centres unmarked) [Compound 190] |
| 32.4 to 100 µM | 3.24 to 31.6 µM | CS(=O)(=O)N1CCN(c2cc(Cl)cc3[nH]nc(N)c23)CC1 [Compound 135] |
| < 3.16 µM | < 3.16 µM | O=C1NC(=O)C2(CCN(c3cc(C(F)(F)F)cc4[nH]ncc34)CC2)N1 [Compound 185] |
| 3.24 to 31.6 µM | 32.4 to 100 µM | CC1(C)CC(c2cccc3[nH]ncc23)CCN1S(C)(=O)=O (centres unmarked) [Compound 187] |
| 3.24 to 31.6 µM | 3.24 to 31.6 µM | CS(=O)(=O)N1CCC(Oc2cc(Cl)cc3[nH]ncc23)CC1 [Compound 159] |
| < 3.16 µM | 3.24 to 31.6 µM | CCCS(=O)(=O)N1CCC(c2cc(Cl)cc3[nH]ncc23)CC1 [Compound 140] |
| < 3.16 µM | 3.24 to 31.6 µM | CC(C)c1cc(N2CCN(S(C)(=O)=O)C(C)(C)C2)c2cn[nH]c2c1 [Compound 145] |
| < 3.16 µM | 3.24 to 31.6 µM | CN(C)C(=O)N1CCC(c2cc(Cl)cc3[nH]ncc23)CC1 [Compound 132] |
| < 3.16 µM | 3.24 to 31.6 µM | O=S(=O)(c1ccccc1)N1CCC(c2cc(Cl)cc3[nH]ncc23)CC1 [Compound 138] |
| 3.24 to 31.6 µM | 3.24 to 31.6 µM | CCc1cc(N2CCN(S(C)(=O)=O)CC2)c2cn[nH]c2c1 [Compound 158] |
| 3.24 to 31.6 µM | > 100 µM | CS(=O)(=O)N1CCN(c2cc(C3CCOCC3)cc3[nH]ncc23)CC1 [Compound 169] |
| < 3.16 µM | < 3.16 µM | CCc1cc(N2CCN(S(C)(=O)=O)C(C)(C)C2)c2cn[nH]c2c1 [Compound 161] |
| < 3.16 µM | 3.24 to 31.6 µM | NS(=O)(=O)N1CCC(c2cc(Cl)cc3[nH]ncc23)CC1 [Compound 174] |
| < 3.16 µM | 3.24 to 31.6 µM | CC(O)C(=O)N1CCN(c2cc(Cl)cc3[nH]ncc23)CC1 (centres unmarked) [Compound 136] |
| < 3.16 µM | 3.24 to 31.6 µM | CNC(=O)N1CCC(c2cc(Cl)cc3[nH]ncc23)CC1 [Compound 150] |
| < 3.16 µM | 3.24 to 31.6 µM | O=C(N1CCC(c2cc(Cl)cc3[nH]ncc23)CC1)C1(O)CC1 [Compound 195] |
| > 100 µM | 3.24 to 31.6 µM | CS(=O)(=O)N1CCN(c2cc(C(F)(F)F)cc3[nH]ncc23)c2ccccc21 [Compound 186] |
| < 3.16 µM | 3.24 to 31.6 µM | CC1(C)CC(c2cc(Cl)cc3[nH]ncc23)CCN1S(C)(=O)=O (centres unmarked) [Compound 175] |
| < 3.16 µM | 3.24 to 31.6 µM | CCC(=O)N1CCC(c2cc(Cl)cc3[nH]ncc23)CC1 [Compound 170] |
| < 3.16 µM | < 3.16 µM | CC(=O)N1CCC(c2cc(C(F)(F)F)cc3[nH]ncc23)CC1(C)C (centres unmarked) [Compound 133] |
| < 3.16 µM | < 3.16 µM | C[C@@H]1CN(c2cc(Cl)cc3[nH]ncc23)C[C@H](C)N1S(C)(=O)=O [Compound 134] |
| 3.24 to 31.6 µM | > 100 µM | CC1(C)CN(c2cc(-c3ncco3)cc3[nH]ncc23)CCN1S(C)(=O)=O [Compound 171] |
| < 3.16 µM | > 100 µM | O=C(C1COC1)N1CCN(c2cc(Cl)cc3[nH]ncc23)CC1 [Compound 204] |
| < 3.16 µM | 3.24 to 31.6 µM | C[C@@H]1CN(S(C)(=O)=O)CCN1c1cc(Cl)cc2[nH]ncc12 [Compound 197] |
| < 3.16 µM | 3.24 to 31.6 µM | O=S(=O)(C1CC1)N1CCC(c2cc(Cl)cc3[nH]ncc23)CC1 [Compound 188] |
| < 3.16 µM | 3.24 to 31.6 µM | CC(C)S(=O)(=O)N1CCC(c2cc(Cl)cc3[nH]ncc23)CC1 [Compound 141] |
| < 3.16 µM | 3.24 to 31.6 µM | CC1(C)CC(c2cc(C(F)(F)F)cc3[nH]ncc23)CCN1S(C)(=O)=O (centres unmarked) [Compound 154] |
| < 3.16 µM | 3.24 to 31.6 µM | CC(O)C(=O)N1CCC(c2cc(Cl)cc3[nH]ncc23)CC1 (centres unmarked) [Compound 177] |
| < 3.16 µM | 3.24 to 31.6 µM | CC(=O)N1CCN(c2cc(C3CC3)cc3[nH]ncc23)CC1(C)C [Compound 126] |

Second part, the compound before the results:

| Compound | IC50 (TDO) | IC50 (IDO) |
| --- | --- | --- |
| CCCS(=O)(=O)N1CCN(c2cccc3[nH]ncc23)CC1 [Compound 16] | 3.24 to 31.6 µM | 32.4 to 100 µM |
| CNC(=O)CN1CCN(c2cc(Cl)cc3[nH]ncc23)CC1 [Compound 59] | < 3.16 µM | 3.24 to 31.6 µM |
| c1ccc(CCNc2cccc3[nH]ncc23)cc1 [Compound 50] | 32.4 to 100 µM | 32.4 to 100 µM |
| CS(=O)(=O)N1CCC(c2cc(C(F)(F)F)cc3[nH]ncc23)CC1 [Compound 100] | < 3.16 µM | 3.24 to 31.6 µM |
| CN1CC2CN(c3cc(Cl)cc4[nH]ncc34)CCN2C1=O (centres unmarked) [Compound 122] | < 3.16 µM | 3.24 to 31.6 µM |
| O=S(=O)(Cc1ccccc1)N1CCN(c2cc(Cl)cc3[nH]ncc23)CC1 [Compound 56] | < 3.16 µM | 3.24 to 31.6 µM |
| O=S1(=O)CCC2CN(c3cc(Cl)cc4[nH]ncc34)CCN21 (centres unmarked) [Compound 89] | < 3.16 µM | 3.24 to 31.6 µM |
| COCCS(=O)(=O)N1CCN(c2cc(Cl)cc3[nH]ncc23)CC1 [Compound 64] | < 3.16 µM | 3.24 to 31.6 µM |
| O=C1NCC2CN(c3cc(Cl)cc4[nH]ncc34)CCN12 (centres unmarked) [Compound 88] | < 3.16 µM | 3.24 to 31.6 µM |
| CN(C1CCN(c2cc(Cl)cc3[nH]ncc23)CC1)S(C)(=O)=O [Compound 117] | < 3.16 µM | 3.24 to 31.6 µM |
| O=S(=O)(C1CCCC1)N1CCN(c2cc(Cl)cc3[nH]ncc23)CC1 [Compound 57] | < 3.16 µM | 3.24 to 31.6 µM |
| CC(=O)N1CCN(c2cc(Br)cc3[nH]ncc23)CC1(C)C [Compound 90] | < 3.16 µM | < 3.16 µM |
| CC(=O)N1CCN(c2cc(Cl)cc3c2cnn3C)CC1(C)C [Compound 104] | 3.24 to 31.6 µM | 32.4 to 100 µM |
| CC(=O)N1CCN(c2cc(Cl)cc3[nH]ncc23)CC12CC2 [Compound 93] | < 3.16 µM | 3.24 to 31.6 µM |
| CN(CCNc1cccc2[nH]ncc12)S(C)(=O)=O [Compound 62] | 32.4 to 100 µM | > 100 µM |
| CC(=O)N1CCC(c2cc(C3CC3)cc3[nH]ncc23)CC1 [Compound 86] | 3.24 to 31.6 µM | 3.24 to 31.6 µM |
| CC(=O)N1CCN(c2cc(Br)cc3[nH]ncc23)CC1 [Compound 76] | < 3.16 µM | 3.24 to 31.6 µM |
| CS(=O)(=O)N1CCC(O)(c2cc(Cl)cc3[nH]ncc23)CC1 [Compound 123] | < 3.16 µM | 3.24 to 31.6 µM |

| Compound | IC50 (TDO) | IC50 (IDO) |
| --- | --- | --- |
| CS(=O)(=O)N1CCC(c2ccc(Cl)c3[nH]ncc23)CC1 [Compound 42] | 32.4 to 100 µM | 3.24 to 31.6 µM |
| CS(=O)(=O)N1CCN(c2cc(Cl)cc3[nH]ncc23)CC12CC2 [Compound 94] | < 3.16 µM | 3.24 to 31.6 µM |
| CS(=O)(=O)N1CCN(c2cccc3c(N)noc23)CC1 [Compound 120] | > 100 µM | 3.24 to 31.6 µM |
| NS(=O)(=O)N1CCN(c2cc(Cl)cc3[nH]ncc23)CC1 [Compound 81] | < 3.16 µM | 3.24 to 31.6 µM |
| CCC1CN(c2cc(Cl)cc3[nH]ncc23)CCN1C(C)=O (centres unmarked) [Compound 84] | < 3.16 µM | 3.24 to 31.6 µM |
| CS(=O)(=O)N1CCC(c2cc(C3CC3)cc3[nH]ncc23)CC1 [Compound 87] | < 3.16 µM | 3.24 to 31.6 µM |
| CS(=O)(=O)N1CCC(Nc2cccc3[nH]ncc23)CC1 [Compound 75] | 32.4 to 100 µM | > 100 µM |
| CNC(=O)N1CCN(c2cc(Cl)cc3[nH]ncc23)CC1 [Compound 80] | < 3.16 µM | 3.24 to 31.6 µM |
| CC(C)(O)C(=O)N1CCN(c2cc(Cl)cc3[nH]ncc23)CC1 [Compound 111] | < 3.16 µM | 3.24 to 31.6 µM |
| NS(=O)(=O)N1CCN(c2cccc3[nH]ncc23)CC1 [Compound 20] | 3.24 to 31.6 µM | 3.24 to 31.6 µM |
| CC(C)S(=O)(=O)N1CCN(c2cc(Cl)cc3[nH]ncc23)CC1 [Compound 61] | < 3.16 µM | 3.24 to 31.6 µM |
| CN(C)S(=O)(=O)N1CCN(c2cc(Cl)cc3[nH]ncc23)CC1 [Compound 119] | < 3.16 µM | 3.24 to 31.6 µM |
| O=S(=O)(C1CC1)N1CCN(c2cc(Cl)cc3[nH]ncc23)CC1 [Compound 54] | < 3.16 µM | 3.24 to 31.6 µM |
| O=S(=O)(CC(F)(F)F)N1CCN(c2cccc3[nH]ncc23)CC1 [Compound 18] | 32.4 to 100 µM | > 100 µM |
| CC(=O)N1CCCN(c2cccc3[nH]ncc23)CC1 [Compound 58] | 3.24 to 31.6 µM | > 100 µM |
| CC1CN(c2cc(Cl)cc3[nH]ncc23)CCN1S(C)(=O)=O (centres unmarked) [Compound 73] | < 3.16 µM | < 3.16 µM |
| CC(=O)N1CCN(c2cccc3[nH]ncc23)CC1C (centres unmarked) [Compound 27] | 3.24 to 31.6 µM | 32.4 to 100 µM |
